Experiment: Human HepG2 cell viability assay in 384 well format
Type: toxicity, cell-based
Set-up: dose 125 nL, time 70.5 hour; concentration not given beside the values
Conditions: HepG2 cells, read-out: Inhibition

SMILES | cytotoxicity at 70.5 h
CCc1ncc2c(n1)CN(C(=O)CNC(=O)c1ccccc1)C2 | 25.5%
O=C(NCc1ccc(CN2CCCCC2)cc1)Nc1cccnc1 | -1.13%
CCC(NC(=O)C1CCN(S(C)(=O)=O)CC1)c1ccc(OC)cc1 (centres undefined) | -4.59%
CCC1c2cccn2CCN1C(=O)c1cc(OC)nc(OC)n1 (centres undefined) | 44.1%
CC(Nc1cccc2c1OCCO2)C(=O)Nc1cccc(C#N)c1 (centres undefined) | 3.49%
CN(C)CCN1CCOCC12CCN(C(=O)C1CC1)CC2 | -10.1%
CCOc1ccc(Cl)cc1C1CCCN1 (centres undefined) | -16.4%
CCC(O)CN1CCN(C(=O)c2ccnc(N(C)C)c2)CC1 (centres undefined) | -11.3%
OCC(CO)Nc1cccc(C(F)(F)F)n1 | 1.04%
CC(Cn1cccn1)NC(=O)N(C)Cc1cnn(C)c1 (centres undefined) | -7.21%
CN1CCc2nc(C3CCCN(S(=O)(=O)N4CCCC4)C3)ncc2C1 (centres undefined) | 0.156%
CCC(C(=O)NCCc1coc(-c2ccc(C)cc2)n1)N(C)C (centres undefined) | 3.11%
Cc1ccc(NC2CCN(C(=O)c3ccc(C#N)cc3)CC2)nn1 | -7.94%
CN(C)C(=O)CN1CCOCC2(C1)CN(c1ncccn1)CCO2 (centres undefined) | 16.4%
CN(Cc1cnc(N)nc1)CC1CCCN(CCc2ccc(Cl)cc2)C1 (centres undefined) | 8.66%
O=C(NC1CCC1)[C@H]1C[C@H]2NCCO[C@@H]2C1 | 4.07%
CN(C)C(=O)N1CCC2(CC1)CCN(Cc1ccccn1)C2=O | 25.9%
COc1ccc(Cl)cc1C(=O)N1C[C@H](C(C)C)[C@@H](N)C1 | 3.26%
Cn1ccc(C(=O)Nc2nc(-c3ccc4c(c3)CCO4)cs2)cc1=O | -6.04%
CCc1ccc(CNC(=O)CCNc2ncccn2)s1 | -13.5%
CC(C)Cc1ncc2c(n1)CN(c1cc(N3CCCC3)nc(N)n1)C2 | 1.59%
CCn1cc(Br)c(C(=O)NCc2cnn(C)c2)n1 | -13.6%
CN(C)S(=O)(=O)N1CC[C@]2(C[C@H](Oc3ncccc3F)CO2)C1 | 2.84%

SMILES | cytotoxicity at 70.5 h
c1cnc(N2CCO[C@H]3CN(Cc4ccsc4)C[C@H]32)nc1 | -14.2%
CCOC(=O)CCC(=O)N1CC(c2nc(Cc3ccccc3)no2)C1 | -6.9%
CC(NC(=O)C1=NN(C)C(=O)CC1)c1ccc(Cl)cc1 (centres undefined) | -110%
COCCC(=O)N1CCOCC2(CCN(Cc3cccs3)C2)C1 (centres undefined) | -12.3%
N#CC1(NC(=O)Cn2nnc(-c3cc4ccccc4o3)n2)CCCC1 | -11.5%
O=C(c1cscn1)N1CCC2(CN(Cc3ccsc3)C2)C1 | 31.3%
NC(=O)C1CCN(CCCNC(=O)Nc2nncs2)CC1 | -14.5%
CC(C)N(C(=O)N1CCn2cncc2C1)C(C)C | 1.59%
Cc1cc(C(=O)N2CCCC(n3cccn3)C2)c(C)n1C1CC1 (centres undefined) | -2.54%
CC1(C)C(C(=O)NCCC2CN(Cc3c[nH]cn3)CCO2)C1(C)C (centres undefined) | -13.9%
Cn1cc(NC(=O)Nc2ccc3c(c2)OCO3)cn1 | -8.14%
Cc1cc(CN2C[C@@H]3COC[C@]3(CNC(=O)c3ccno3)C2)no1 | -4.13%
COCCN(Cc1cnn(C)c1)C(=O)C1COc2c(cccc2OC)C1 (centres undefined) | 0.35%
CCc1nnc(CN2CCCC(c3cc(C(F)(F)F)[nH]n3)C2)o1 (centres undefined) | 0.217%
COC(=O)c1cccc(CN(C)Cc2ncnn2C)c1C#N | 28.8%
COCc1nc(C(=O)N2CCCC(n3cccn3)C2)cs1 (centres undefined) | -13.4%
CCn1nc(C)cc1C(=O)N1C[C@@H]2C[C@@H](c3nc(C)cs3)O[C@@H]2C1 | -2.46%
Cc1nn(-c2ccccc2)nc1C(=O)NCC(c1ccsc1)N(C)C (centres undefined) | 13.1%
CCC(=O)N1CCC2(CC1)CC(Oc1ccccc1)CO2 (centres undefined) | -4.49%
COc1ccc(CC2CN(C(=O)c3ocnc3C)CCO2)cc1 (centres undefined) | 14.4%
Cn1c(C2CC2)nc2c1CCN(CCOc1ccc(C#N)cc1)C2 | -9.07%
CC(C)CN1CCCC2(CCN(c3ccccn3)C2)C1 (centres undefined) | 8.64%
O=C(Nc1ccc(F)cc1)C1CNCCN1C(=O)CSc1ccncc1 (centres undefined) | 28.9%

SMILES | cytotoxicity at 70.5 h
O=C(c1cccc(CNS(=O)(=O)c2ccc(F)cc2)c1)N1CCCC1 | -9.64%
Nc1ccc(CC2COc3ccccc3C2)cn1 (centres undefined) | -5.61%
CC(C)CNC(=O)CN(C)S(C)(=O)=O | 0.607%
CC(C)N1CCc2[nH]nc(C(=O)N3CCCC3C)c2C1 (centres undefined) | -4.03%
CC(C)Oc1ccccc1CNC(=O)N1CCC(n2cncn2)CC1 | 26.9%
CC(Oc1cc(Cl)cc(Cl)c1)C(=O)NCCS(N)(=O)=O (centres undefined) | -4%
CCCOCC(=O)NC1CCc2nc(C)cn2C1 (centres undefined) | -2.67%
O=C(Cc1ccccc1F)N1CCN(C(=O)c2ccoc2)CC1 | -1.84%
CCCN1CC[C@@H]2OC[C@H](C(=O)Nc3cccnc3)C[C@@H]2C1 | 2.64%
CN(C)CC1CN(C(=O)Cc2ccccc2)Cc2nccn2C1 (centres undefined) | 24%
O=C(N[C@H]1CN(c2nc(CO)cs2)C[C@@H]1C1CC1)C1CCCCC1 | -6.79%
O=C1NCC(C(=O)N(Cc2ccc(C(F)(F)F)cc2)C2CC2)N1 (centres undefined) | 23.5%
CNc1nc2c(c(C(=O)N3CCCC3)n1)CN(Cc1ccco1)CC2 | -3.76%
CN(C)C(C(=O)NCC1(O)CCCCC1)c1c(F)cccc1F (centres undefined) | -13%
CC(=O)N1C[C@H](NS(=O)(=O)Cc2cccc(Cl)c2)[C@@H](C(C)C)C1 | -6.96%
CCS(=O)(=O)N1CCc2ccc(NC(=O)Nc3cccc(C)c3)cc21 | 17.9%
CC(C)Cc1cc(NC(=O)c2cccnc2)n(C)n1 | -9.43%
CCCc1nnc(NC(=O)N2CCCC2c2ccncc2)s1 (centres undefined) | 18.5%
Cc1noc(C(C)N2CCN(Cc3noc(C4CC4)n3)CC2)n1 (centres undefined) | -8.62%
O=S(=O)(Cc1ccccc1Cl)N1CCC2(CC1)OCCS2 | -5.23%
CC(C)C1CCC(N2CCN(CCCS(C)(=O)=O)CC2)CC1 (centres undefined) | -3.77%
COc1ccccc1-n1nc(-c2ccco2)n(CC(=O)NC2CC2)c1=O | 10.2%
Cc1ccc(C(=O)N2CCCC(c3[nH]ncc3S(C)(=O)=O)C2)s1 (centres undefined) | 10.6%

SMILES | cytotoxicity at 70.5 h
O=C(c1cnccn1)N1CCCC(Cn2cc(C3CC3)nn2)C1 (centres undefined) | 15.7%
CC(c1nc(C2CC2)no1)N1CCC(NS(=O)(=O)c2cccs2)CC1 (centres undefined) | -13.4%
Cc1ccc(OCc2occc2C(=O)N2C[C@@H]3[C@@H](CN(C)C)[C@@H]3C2)cc1 | -9.55%
COC(=O)c1c(C(F)(F)F)cnc(OC)c1Cl | -11.7%
COCCSCC(=O)NCc1ccc(N(C)C)nc1 | -4.15%
CC(C)c1ncc2c(n1)CN(Cc1nc(-c3ccoc3)no1)CC2 | -16.7%
CCc1noc(CN2CCN(CCO)CC2)n1 | -1.62%
Cn1nnc2c1C(COCc1ccccn1)CN(C(=O)c1cccs1)C2 (centres undefined) | 5.64%
Cc1cn2c(n1)CCC(NC(=O)c1[nH]ncc1Br)C2 (centres undefined) | -9.45%
CCc1c(C)nn2c(O)cc(C3CCN(C(=O)c4cnn(C)c4)C3)nc12 (centres undefined) | -0.531%
COc1ccc(S(=O)(=O)N2CCc3ccc(F)cc32)cc1C(=O)O | 1.61%
O=C(CNC(=O)c1c(F)cccc1Cl)Nc1ccc(F)cn1 | -12.6%
O=C1CCCN1CC1CN(CC2CCOCC2)Cc2nccn2C1 (centres undefined) | -2.55%
CN1CC(C(=O)NCCOc2ccc3c(c2)OCO3)CC1=O (centres undefined) | -1.1%
Cc1ncccc1-c1cc2cccnc2n1CCCNC(=O)C(C)(C)C | 2.29%
NC(=O)CN1CCCC(Cc2ccc(N3CCOCC3)nn2)C1 (centres undefined) | -0.993%
c1ncn(CC2CCCCN2Cc2csc(-c3ccsc3)n2)n1 (centres undefined) | -7.71%
O=C1CC2(CCSC2)C(=O)N1Cc1coc(-c2cccc(F)c2)n1 (centres undefined) | -2.41%
Cc1cc(-c2ccc(C(C)N3CCCCC3)cc2)cnc1N (centres undefined) | -1.07%
Cc1cc(C(=O)NC(C)Cc2cccc(Cl)c2)n(C)n1 (centres undefined) | -2.61%
COc1ccc(/C=C/CN2CCC3(C2)CN(C)C(=O)O3)cc1 (centres undefined) | -6.62%
Cc1ccccc1C(=O)Nc1cnn(CCN2CCOCC2)c1 | 5.4%
Cn1cc(-c2csc(N3CCCCCC3)n2)cn1 | -1.01%

SMILES | cytotoxicity at 70.5 h
CNc1nc2c(c(C(=O)N3CCCC3)n1)CN(C(=O)c1cccs1)CC2 | 5.33%
Cc1cc(CN2CCN(C(=O)NCc3ccc(C)s3)CC2)on1 | -2.93%
COc1ccc(C2CCCCCN2S(N)(=O)=O)cc1 (centres undefined) | 23.5%
CCn1ccnc1C1CCN(Cc2cccc(Cl)c2)CC1 | 37.8%
Cc1ccc(-c2noc([C@@H]3Cc4nc[nH]c4CN3)n2)cc1 | -11.9%
CC(=O)N1N=C(c2ccccc2)OC1C(=O)NCCc1ccc(C)cc1 (centres undefined) | 0.438%
O=C(C1CCCO1)N1CCC2(CC1)COCCN(Cc1ccncc1)C2 (centres undefined) | -9.52%
Cc1sc(Br)cc1S(=O)(=O)NCc1ccccn1 | -18.2%
CCn1nc2c(cc1=O)CN(c1nc3ccccc3s1)CC2 | 16.9%
Cc1cn2nc(N3CCCC3CC(C)(C)C)sc2n1 (centres undefined) | -4.57%
CN(C)C(=O)NCc1cc2n(n1)CCCN(CC1CCCNC1)C2 (centres undefined) | 29.9%
O=C(NCc1ccccn1)[C@H]1COC[C@H]2CN(CC3CC3)C[C@H]21 | -10.6%
COc1cccc(/C=C/CCN2CCCN(C(C)=O)CC2)c1 | -6.2%
Cc1cc(-n2cccn2)ccc1CN1CCOCC(CN(C)C)C1 (centres undefined) | 27.5%
c1cnc(N2CCOC3(CCCN(c4cnccn4)C3)C2)nc1 (centres undefined) | -8.79%
Cn1cc(CN2CCOC(c3cccc(-c4cccc(F)c4)n3)C2)cn1 (centres undefined) | -4.34%
N#CCCN(CC(F)(F)F)C(=O)c1cc(-n2cccn2)ccn1 | -3.35%
CCc1nccn1C1CCCN(C(=O)c2c(C)nsc2NC)C1 (centres undefined) | -7.79%
CCN(CC1CCOCC1)C(=O)Cn1ccccc1=O | -9.29%
CCN(CC)C(=O)CCCNC(=O)Cc1nc(-c2ccco2)oc1C | -12.3%
Cn1cc(CN2CCC[C@]3(C(=O)O)CN(c4ncccn4)C[C@@H]3C2)cn1 | -12%
CC(=O)N1CCCC1C(=O)NCCOc1ccc(C(C)C)cc1 (centres undefined) | -1.19%

Reference: ChEMBL document CHEMBL3507680, “University of Dundee, Gates Library screen for HepG2 cell viability”
